Activity calls are given as the source filed them. No cut-off for these calls is given here.

Data set [1] deals with HCT-116. Kind of data set: Cytotoxicity against human HCT-116 cells incubated for 24 hrs in presence of NAC CCK-8 assay. It counts as functional, cell-based. The settings on record: HCT-116, 24 h. A general note: Tetrazolium assays rely on reduction of a dye to a coloured formazan, in cell work by metabolically active cells.
In data set [2] the target is T1, Indoleamine 2,3-dioxygenase 1 (Homo sapiens, UniProt P14902). Put plainly: Inhibition of IDO1 in human HeLa cells using L-Tryptophan as substrate incubated for 24 hrs by microplate reader analysis. It is filed as cell-based.
T1 sequence (P14902 whole entry): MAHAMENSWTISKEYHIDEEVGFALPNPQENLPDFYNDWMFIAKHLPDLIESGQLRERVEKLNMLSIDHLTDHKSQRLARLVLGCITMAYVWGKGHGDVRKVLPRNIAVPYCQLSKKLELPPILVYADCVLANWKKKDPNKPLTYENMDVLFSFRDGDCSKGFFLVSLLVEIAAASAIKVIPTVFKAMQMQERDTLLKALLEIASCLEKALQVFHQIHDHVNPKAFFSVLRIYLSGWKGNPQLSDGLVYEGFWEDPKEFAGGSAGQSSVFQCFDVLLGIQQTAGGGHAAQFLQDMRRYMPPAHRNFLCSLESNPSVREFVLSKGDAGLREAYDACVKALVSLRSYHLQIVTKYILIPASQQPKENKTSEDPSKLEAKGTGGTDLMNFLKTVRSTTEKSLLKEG
Data set [3] deals with CT26. Kind of data set: Antitumor activity against mouse CT26 cells implanted in […] BALB/c mouse assessed as increase in CD8 T lymphocytes at 15 to 60 mg/kg, ig administered daily for 28 days and measured every 4 days. The settings on record: dose 15-60 mg/kg, time 28.0 day. It is filed as functional, organism-based.
For data set [4], the system named is CT26. Put plainly: Antitumor activity against mouse CT26 cells implanted in athymic nude BALB/c mouse assessed as reduction in proliferative nTreg lymphocytes at 15 to 60 mg/kg, ig administered daily for 28 days and measured every 4 days by immunofluorescence analysis. It is filed as functional, organism-based. The settings on record: dose 15-60 mg/kg, time 28.0 day.

The target of data set [5] is T2, Thioredoxin reductase 1, cytoplasmic (Homo sapiens, UniProt Q16881).
T2 sequence (Q16881 whole entry): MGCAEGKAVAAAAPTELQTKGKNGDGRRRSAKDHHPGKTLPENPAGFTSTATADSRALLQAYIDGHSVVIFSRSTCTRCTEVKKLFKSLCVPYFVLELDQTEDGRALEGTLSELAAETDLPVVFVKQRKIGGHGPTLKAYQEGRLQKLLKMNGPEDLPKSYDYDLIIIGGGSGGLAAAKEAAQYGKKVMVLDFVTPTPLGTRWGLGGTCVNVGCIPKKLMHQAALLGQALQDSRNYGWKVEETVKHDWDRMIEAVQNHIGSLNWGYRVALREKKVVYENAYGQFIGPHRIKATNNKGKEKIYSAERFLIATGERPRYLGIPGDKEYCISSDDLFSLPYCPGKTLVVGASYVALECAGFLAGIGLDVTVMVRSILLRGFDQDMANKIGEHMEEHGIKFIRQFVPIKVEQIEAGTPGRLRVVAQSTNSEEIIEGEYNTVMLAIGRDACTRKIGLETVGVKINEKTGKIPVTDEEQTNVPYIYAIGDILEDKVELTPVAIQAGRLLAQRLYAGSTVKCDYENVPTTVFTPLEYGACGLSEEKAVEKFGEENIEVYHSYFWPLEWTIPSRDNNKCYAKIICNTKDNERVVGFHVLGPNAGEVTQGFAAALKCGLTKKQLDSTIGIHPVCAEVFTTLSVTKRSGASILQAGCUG
Kind of data set: Inhibition of TrxR1 in human HCT-116 cells incubated for 24 hrs. It is filed as cell-based.

Data set [6] in a line: Cytotoxicity against human HCT-116 cells incubated for 48 hrs by CCK-8 assay. It counts as toxicity, cell-based.
Data set [7] relates to HeLa. Put plainly: Induction of ROS generation in human HeLa cells at 10 uM incubated for 4 hrs by DCFH-DA staining based flow cytometry analysis. It counts as functional, cell-based. On the technique in general: Flow cytometry measures light scatter and fluorescence of single cells or particles in a stream.
Data set [8] can be described thus: Cytotoxicity against mouse CT26 cells incubated for 48 hrs by CCK-8 assay. It counts as toxicity, cell-based.
Data set [9] can be described thus: Cytotoxicity against human HeLa cells incubated for 48 hrs by CCK-8 assay. It is filed as toxicity, cell-based.
Data set [10] deals with HCT-116. Put plainly: Cytotoxicity against human HCT-116 cells transfected with IDO1 siRNA incubated for 24 hrs by CCK-8 assay (reference value: 3.49 +/- 0.28 uM). It counts as functional, cell-based. Conditions: HCT-116, 24 h.
For data set [11], the target named is Indoleamine 2,3-dioxygenase 1 (Mus musculus) (UniProt P28776). Put plainly: In vivo inhibition of IDO1 in C57BL/6 mouse assessed as increase in plasma Trp level at 60 mg/kg, po administered once daily by LC-MS/MS analysis. It counts as functional, organism-based.
Chain of Indoleamine 2,3-dioxygenase 1 (Mus musculus) (P28776 whole entry, looked up): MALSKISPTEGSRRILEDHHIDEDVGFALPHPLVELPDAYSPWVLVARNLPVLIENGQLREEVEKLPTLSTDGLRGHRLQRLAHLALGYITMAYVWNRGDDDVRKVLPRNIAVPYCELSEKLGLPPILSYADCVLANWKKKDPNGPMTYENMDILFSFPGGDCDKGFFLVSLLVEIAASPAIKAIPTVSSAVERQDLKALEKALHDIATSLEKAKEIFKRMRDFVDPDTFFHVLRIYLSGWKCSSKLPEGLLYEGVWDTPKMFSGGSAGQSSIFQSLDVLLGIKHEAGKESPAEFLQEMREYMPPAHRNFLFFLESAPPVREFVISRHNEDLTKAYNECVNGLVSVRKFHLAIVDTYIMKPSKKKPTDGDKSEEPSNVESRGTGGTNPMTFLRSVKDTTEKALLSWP
The subject of data set [12] is CT26. Put plainly: Antitumor activity against ig dosed mouse CT26 cells implanted in […] BALB/c mouse assessed as reduction in tumor weight administered daily for 28 days and measured every 4 days. The settings on record: dose 15-60 mg/kg, time 28.0 day. It is filed as functional, organism-based.
Data set [13] has as its target Tryptophan 2,3-dioxygenase (Homo sapiens, UniProt P48775). Put plainly: Inhibition of TDO (unknown origin) using L-Trp as substrate incubated for 75 mins.
Data set [14] concerns the target T1, Indoleamine 2,3-dioxygenase 1. Kind of data set: Inhibition of recombinant human IDO1 using L-Trp as substrate incubated for 1 hr.
For data set [15], the system named is HeLa. Put plainly: Cytotoxicity against IDO1 knockdown human HeLa cells incubated for 24 hrs by CCK-8 assay (reference value: 45.93 +/- 2.23 nM). It counts as functional, cell-based.
Data set [16] can be described thus: Toxicity in athymic BALB/c mouse xenografted with human HCT-116 cells assessed as change in heart morphology at 15 to 60 mg/kg, ig administered daily for 28 days and measured every 4 days. Conditions: in vivo, po, 672 h, dose 15-60 mg/kg, time 28 day. It is filed as organism-based. On the technique in general: In xenograft studies the graft and the host belong to different species.

Data set [17] deals with CT26. Put plainly: Antitumor activity against mouse CT26 cells implanted in […] BALB/c mouse assessed as increase in CD4 Th lymphocytes at 15 to 60 mg/kg, ig administered daily for 28 days and measured every 4 days. It counts as functional, organism-based. The settings on record: dose 15-60 mg/kg, time 28.0 day.
The test system of data set [18] is CT26. Kind of data set: Antitumor activity against mouse CT26 cells implanted in athymic nude BALB/c mouse assessed as reduction in CD4+CD25+Foxp3+ lymphocytes at 15 to 60 mg/kg, ig administered daily for 28 days and measured every 4 days by immunofluorescence analysis. Conditions: dose 15-60 mg/kg, time 28.0 day. It is filed as functional, organism-based.
Data set [19] deals with HCT-116. Kind of data set: Induction of apoptosis in human HCT-116 cells assessed as apoptotic rate at 2.5 uM incubated for 24 hrs by Annexin-V/PI staining based flow cytometry analysis. It is filed as functional.
Data set [20] concerns HCT-116. Put plainly: Induction of cell cycle arrest in human HCT-116 cells assessed as G1/S phase arrest at 2.5 to 10 uM incubated for 24 hrs by PI staining based flow cytometry analysis. It counts as functional. The settings on record: dose 2.5-10 µM.
Data set [21] deals with HeLa. Kind of data set: Induction of ROS generation in human HeLa cells incubated for 4 hrs by DCFH-DA staining based flow cytometry analysis. It is filed as functional, cell-based. Conditions: dose 2.5-10 µM.
Data set [22] concerns the target T3, Indoleamine 2,3-dioxygenase 2 (Homo sapiens, UniProt Q6ZQW0).
T3 sequence (Q6ZQW0 whole entry): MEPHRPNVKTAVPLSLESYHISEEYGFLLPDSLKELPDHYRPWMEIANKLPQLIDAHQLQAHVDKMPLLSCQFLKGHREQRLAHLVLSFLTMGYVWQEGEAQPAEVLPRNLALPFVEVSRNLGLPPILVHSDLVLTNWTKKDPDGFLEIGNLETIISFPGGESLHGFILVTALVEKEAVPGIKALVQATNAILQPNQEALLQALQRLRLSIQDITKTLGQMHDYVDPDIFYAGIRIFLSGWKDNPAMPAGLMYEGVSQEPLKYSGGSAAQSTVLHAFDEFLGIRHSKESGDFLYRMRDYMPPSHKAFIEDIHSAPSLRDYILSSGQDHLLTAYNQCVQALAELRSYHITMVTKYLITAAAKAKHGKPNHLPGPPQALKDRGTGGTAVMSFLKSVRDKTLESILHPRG
Put plainly: Inhibition of IDO2 (unknown origin) using D-Trp as substrate incubated for 1 hr.

A further data set relates to IDO1. Kind of data set: Selectivity ratio of IC50 for cytotoxicity against mouse CT26 cells to EC50 for inhibition of IDO1 in mouse CT26 cells. The settings on record: read-out: Ratio IC50/EC50. It counts as cell-based.
The next data set deals with Mus musculus. Kind of data set: In vivo inhibition of TrxR1 in human HCT-116 cells xenografted in athymic nude BALB/c mouse assessed as reduction in TrxR1 activity at 15 to 60 mg/kg, ig administered daily for 28 days and measured every 4 days. It is filed as functional, organism-based. The settings on record: dose 15-60 mg/kg, time 28.0 day.

Chain of Tryptophan 2,3-dioxygenase (P48775 whole entry): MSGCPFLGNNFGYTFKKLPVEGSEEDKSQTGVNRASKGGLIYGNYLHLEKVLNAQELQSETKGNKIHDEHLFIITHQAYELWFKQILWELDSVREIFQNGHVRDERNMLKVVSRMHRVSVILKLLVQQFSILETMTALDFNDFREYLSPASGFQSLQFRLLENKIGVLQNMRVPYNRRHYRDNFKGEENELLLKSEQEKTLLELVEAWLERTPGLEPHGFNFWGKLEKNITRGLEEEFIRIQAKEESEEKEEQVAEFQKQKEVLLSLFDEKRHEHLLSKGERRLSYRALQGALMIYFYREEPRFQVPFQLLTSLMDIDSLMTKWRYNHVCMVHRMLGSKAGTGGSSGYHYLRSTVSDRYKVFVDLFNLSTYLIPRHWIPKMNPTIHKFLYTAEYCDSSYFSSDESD

For `O=C(Cc1ccc(O)cc1)Nc1nnc(CCCNc2nonc2/C(=N\O)Nc2ccc(F)c(Br)c2)s1`, the 50% inhibitory concentration (IC50) (in general, the concentration needed to halve the response being measured) came to 60.8 µM in the data set with HCT-116 [1]; 3.79 µM in the data set on HCT-116 [10]; 54.2 µM in data set [13]; 0.05 µM in [14]; 26.1 µM with HeLa [15]; 22.2 µM in [22]. Besides, the EC50 – broadly, the midpoint of the concentration-response curve – in [2] worked out at 45.6 µM; in data set [5], 3.14 µM. The result (with CT26 [3]; in the data set on CT26 [4]; in the data set on HeLa [7]; in data set [11]; in the data set on CT26 [17]; in the data set on CT26 [18]) was Active. Further, the outcome with HCT-116 [20] and in the data set on Mus musculus was Active. Moreover, the IC50 at 48 h in data set [6] stood at 3.44 µM; in data set [8], 12.4 µM; in data set [9], 10.2 µM. For the same compound, the Activity result was “Dose-Dependent Effect” with CT26 [12], “Non-Toxic” in [16], 22.57% with HCT-116 [19] and “Dose-Dependent Effect” in the data set on HeLa [21]. The selectivity ratio in the data set with IDO1 came to 5.35.

The record behind these values is ChEMBL document CHEMBL5385848, “Discovery of novel hydroxyamidine based indoleamine 2,3-dioxygenase 1 (IDO1) and thioredoxin reductase 1 (TrxR1) dual inhibitors” (Eur J Med Chem, 2023).
